Here are results for 19 compounds from patent US12486253B2, “Therapeutics for the degradation of mutant BRAF” (C4 THERAPEUTICS, INC., priority 2021, dated 2025).

“And” between values parts separate entries of the source, which are not always exact repeats. Equal entries are not always repeated. Structures can show the parent of a compound that is named as a salt. Where two headings read alike, the source gives them in different places.

As usually defined, the DC50 is the midpoint of the concentration-degradation curve. A lower DC50 goes with a more potent degrader. As usually defined, the Emax is the size of the effect at its maximum, as opposed to the concentration needed.

This test deals with BRAF V600E (Homo sapiens, UniProt P15056, V600E). Kind of test: HiBiT cellular BRAF^V600E degradation assay. Type of test: cell-based. The conditions noted are these: for DC50: concentration at which 50% of total cellular BRAF^V600E is degraded; for Emax: read-out: HiBit 24 h Emax. (In general: With HiBiT, luminescence reflects the tagged protein that the partner subunit can reach.)

Where [1] appears, read: A375.10 cells, 24 h, residual protein remaining in the cell.

Chain of BRAF V600E (P15056 whole entry V600E): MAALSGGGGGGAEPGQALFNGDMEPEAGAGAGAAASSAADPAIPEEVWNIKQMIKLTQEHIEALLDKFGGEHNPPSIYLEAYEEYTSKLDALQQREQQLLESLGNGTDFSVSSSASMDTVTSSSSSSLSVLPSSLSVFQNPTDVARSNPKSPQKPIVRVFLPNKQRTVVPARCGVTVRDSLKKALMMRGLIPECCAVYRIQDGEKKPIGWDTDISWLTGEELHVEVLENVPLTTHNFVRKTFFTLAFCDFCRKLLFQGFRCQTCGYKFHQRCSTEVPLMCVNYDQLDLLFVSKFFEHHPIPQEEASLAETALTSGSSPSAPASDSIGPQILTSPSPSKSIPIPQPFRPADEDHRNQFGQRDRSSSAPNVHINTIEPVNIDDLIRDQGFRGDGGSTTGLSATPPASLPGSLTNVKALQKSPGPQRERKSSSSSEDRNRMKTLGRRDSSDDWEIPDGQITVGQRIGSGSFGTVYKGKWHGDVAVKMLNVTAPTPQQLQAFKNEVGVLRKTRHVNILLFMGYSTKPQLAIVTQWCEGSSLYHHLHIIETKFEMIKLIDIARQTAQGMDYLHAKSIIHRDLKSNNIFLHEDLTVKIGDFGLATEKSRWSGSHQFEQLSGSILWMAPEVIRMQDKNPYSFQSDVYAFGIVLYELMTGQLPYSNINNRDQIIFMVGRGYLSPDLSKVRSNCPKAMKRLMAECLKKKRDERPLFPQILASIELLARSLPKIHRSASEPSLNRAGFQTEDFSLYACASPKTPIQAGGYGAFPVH

Turning to `CCN(C)S(=O)(=O)Nc1ccc(F)c(Oc2ccc3ncn(C4CC5(CCN(C(=O)NC6CCN(c7ccc(NC8CCC(=O)NC8=O)cc7F)CC6)CC5)C4)c(=O)c3c2)c1C#N` (stereo not shown) [Example 37, 2-[6-[2-cyano-3-[[ethyl(methyl)sulfamoyl]amino]-6-fluorophenoxy]-4-oxoquinazolin-3-yl]-N-[1-[4-[(2,6-dioxopiperidin-3-yl)amino]-2-fluorophenyl]piperidin-4-yl]-7-azaspiro[3.5]nonane-7-carboxamide], the Emax amounted to 16.2%. This compound came in with a DC50 (A375.10 cells, 24 h) of 48.4 nM.
Regarding `Cn1nc(N2CCC(=O)NC2=O)c2cc(F)c(N3CCC(O)(CC(=O)N4CCC5(CC4)C[C@@H](n4cnc6ccc(Oc7c(F)ccc(NS(=O)(=O)N8CC[C@@H](F)C8)c7C#N)cc6c4=O)CO5)CC3)cc21` [Example 190, (3R)—N-[2-cyano-3-[3-[(3R)-8-[2-[1-[3-(2,4-dioxo-1,3-diazinan-1-yl)-5-fluoro-1-methylindazol-6-yl]-4-hydroxypiperidin-4-yl]acetyl]-1-oxa-8-azaspiro[4.5]decan-3-yl]-4-oxoquinazolin-6-yl]oxy-4-fluorophenyl]-3-fluoropyrrolidine-1-sulfonamide], under “A375.10 cells, 24 h”, the DC50 worked out at 39.3 nM. For the same compound, the maximum response (Emax) under setting [1] was found to be 24.7%.
For `CCN(C)S(=O)(=O)Nc1ccc(F)c(Oc2ccc3ncn(CCC(C)C4CCN(C(=O)CN5CCC(c6ccc(NC7CCC(=O)NC7=O)cc6F)CC5)CC4)c(=O)c3c2)c1C#N` (stereo not shown) [Example 11, 6-[2-cyano-3-[[ethyl(methyl)sulfamoyl]amino]-6-fluorophenoxy]-3-[3-[1-[2-[4-[4-[(2,6-dioxopiperidin-3-yl)amino]-2-fluorophenyl]piperidin-1-yl]acetyl]piperidin-4-yl]butyl]-4-oxoquinazoline] the same measures were 10.1 nM and 9.52%.
For the setting “A375.10 cells, 24 h”, `CCN(C)S(=O)(=O)Nc1ccc(F)c(Oc2ccc3ncn(C4COC5(CCN(C(=O)CN6CCC(c7ccc(NC8CCC(=O)NC8=O)cc7F)CC6)CC5)C4)c(=O)c3c2Br)c1C#N` (stereo not shown) [Example 68, 3-[5-bromo-6-[2-cyano-3-[[ethyl(methyl)sulfamoyl]amino]-6-fluorophenoxy]-4-oxoquinazolin-3-yl]-8-[2-[4-[4-[(2,6-dioxopiperidin-3-yl)amino]-2-fluorophenyl]piperidin-1-yl]acetyl]-1-oxa-8-azaspiro[4.5]decane] showed a DC50 of 8.77 nM. Also, the Emax under setting [1] came out at 8.05%.
For `CCN(C)S(=O)(=O)Nc1ccc(F)c(Oc2ccc3ncn(C4CC5(CCN(C(=O)CN6CCC(c7ccc8c(N9CCC(=O)NC9=O)nn(C)c8c7)CC6)CC5)C4)c(=O)c3c2)c1C#N` [Example 147, 6-[2-cyano-3-[[ethyl(methyl)sulfamoyl]amino]-6-fluorophenoxy]-3-[7-[2-[4-[3-(2,4-dioxo-1,3-diazinan-1-yl)-1-methylindazol-6-yl]piperidin-1-yl]acetyl]-7-azaspiro[3.5]nonan-2-yl]-4-oxoquinazoline] the same measures were 26.9 nM and 9.49%.
Regarding `CCN(C)S(=O)(=O)Nc1ccc(F)c(Oc2ccc3ncn([C@H]4COC5(CCN(C(=O)CN6CCN(c7cc8c(cc7F)c(N7CCC(=O)NC7=O)nn8C)CC6)CC5)C4)c(=O)c3c2)c1C#N` [Example 164, (3R)-3-[6-[2-cyano-3-[[ethyl(methyl)sulfamoyl]amino]-6-fluorophenoxy]-4-oxoquinazolin-3-yl]-8-[2-[4-[3-(2,4-dioxo-1,3-diazinan-1-yl)-5-fluoro-1-methylindazol-6-yl]piperazin-1-yl]acetyl]-1-oxa-8-azaspiro[4.5]decane], it took 26.6 nM to reach half-maximal degradation (A375.10 cells, 24 h) (DC50). The Emax under setting [1] is 15.6%.
The matching figures for `CCN(C)S(=O)(=O)Nc1ccc(F)c(Oc2ccc3ncn(CCCC4CCN(C(=O)CN5CCC(c6ccc(NC7CCC(=O)NC7=O)cc6)CC5)CC4)c(=O)c3c2)c1C#N` (stereo not shown) [Example 4, 6-[2-cyano-3-[[ethyl(methyl)sulfamoyl]amino]-6-fluorophenoxy]-3-[3-[1-[2-[4-[4-[(2,6-dioxopiperidin-3-yl)amino]phenyl]piperidin-1-yl]acetyl]piperidin-4-yl]propyl]-4-oxoquinazoline]: 28.6 nM and 10.8%.
The matching figures for `CCN(C)S(=O)(=O)Nc1ccc(F)c(Oc2ccc3ncn(CCCC4CCN(C(=O)CN5CCC(c6ccc(NC7CCC(=O)NC7=O)cc6F)CC5)CC4)c(=O)c3c2)c1C#N` (stereo not shown) [Example 6, 6-[2-cyano-3-[[ethyl(methyl)sulfamoyl]amino]-6-fluorophenoxy]-3-[3-[1-[2-[4-[4-[(2,6-dioxopiperidin-3-yl)amino]-2-fluorophenyl]piperidin-1-yl]acetyl]piperidin-4-yl]propyl]-4-oxoquinazoline]: 22.7 nM and 11.5%.
In the case of `CCN(C)S(=O)(=O)Nc1ccc(F)c(Oc2ccc3ncn(-c4cnc(N5CCN(C(=O)CN6CCC(c7ccc(N[C@H]8CCC(=O)NC8=O)cc7F)CC6)CC5)nc4)c(=O)c3c2)c1C#N` [Example 92, 6-[2-cyano-3-[[ethyl(methyl)sulfamoyl]amino]-6-fluorophenoxy]-3-[2-[4-[2-[4-[4-[[(3S)-2,6-dioxopiperidin-3-yl]amino]-2-fluorophenyl]piperidin-1-yl]acetyl]piperazin-1-yl]pyrimidin-5-yl]-4-oxoquinazoline], the Emax was 7.37%. Where the note is “A375.10 cells, 24 h”, this compound returned a DC50 of 8.71 nM.
As to `CCN(C)S(=O)(=O)Nc1ccc(F)c(Oc2ccc3ncn(CCC4CCN(CC(=O)N5CCC(c6ccc(NC7CCC(=O)NC7=O)cc6)CC5)CC4)c(=O)c3c2)c1C#N` (stereo not shown) [Example A2, 6-[2-cyano-3-[[ethyl(methyl)sulfamoyl]amino]-6-fluoro-phenoxy]-3-[2-[1-[2-[4-[4-[(2,6-dioxo-3-piperidyl)amino]phenyl]-1-piperidyl]-2-oxo-ethyl]-4-piperidyl]ethyl]-4-oxo-quinazoline, 2,2,2-trifluoroacetic acid salt], where the note is “A375.10 cells, 24 h”, it took 165 nM to reach half-maximal degradation (DC50). For the same compound, under setting [1], the Emax worked out at 26%.
For the compound `CCN(C)S(=O)(=O)Nc1ccc(F)c(Oc2ccc3ncn([C@H]4COC5(CCN(C6CCC(c7ccc(NC8CCC(=O)NC8=O)cc7F)CC6)CC5)C4)c(=O)c3c2)c1C#N` (single isomer, unassigned) [Example 131], under setting [1], the “HiBit 24 h Emax” value is 8.5% and 8.05%.
`CO[C@H]1CCN(S(=O)(=O)Nc2ccc(F)c(Oc3ccc4ncn(-c5cnc(N6CCN(C(=O)CN7CCC(c8ccc(N[C@@H]9CCC(=O)NC9=O)cc8F)CC7)CC6)nc5)c(=O)c4c3)c2C#N)C1` [Example 110, (3S)—N-[2-cyano-3-[3-[2-[4-[2-[4-[4-[[(3R)-2,6-dioxopiperidin-3-yl]amino]-2-fluorophenyl]piperidin-1-yl]acetyl]piperazin-1-yl]pyrimidin-5-yl]-4-oxoquinazolin-6-yl]oxy-4-fluorophenyl]-3-methoxypyrrolidine-1-sulfonamide] had a DC50 (A375.10 cells, 24 h) of 42.5 nM. For the same compound, the Emax under setting [1] is 8.22%.
For `CCN(C)S(=O)(=O)Nc1ccc(F)c(Oc2ccc3ncn(C4CCC5(CC4)CCN(C(=O)CN4CCC(c6ccc7c(C8CCC(=O)NC8=O)nn(C)c7c6)CC4)CC5)c(=O)c3c2)c1C#N` (stereo not shown) [Example 156, 9-[6-[2-cyano-3-[[ethyl(methyl)sulfamoyl]amino]-6-fluorophenoxy]-4-oxoquinazolin-3-yl]-3-[2-[4-[3-(2,6-dioxopiperidin-3-yl)-1-methylindazol-6-yl]piperidin-1-yl]acetyl]-3-azaspiro[5.5]undecane] the same measures were 26.6 nM and 21%.
For `CCN(C)S(=O)(=O)Nc1ccc(F)c(Nc2ccc3ncn([C@H]4COC5(CCN(C(=O)CC6CCN(c7cc8c(cc7F)c(N7CCC(=O)NC7=O)nn8C)CC6)CC5)C4)c(=O)c3c2F)c1C#N` (single isomer, unassigned) [Example 202] the same measures were 5.17 nM and 23.9%.
The matching figures for `CCN(C)S(=O)(=O)Nc1ccc(F)c(Oc2ccc3ncn([C@@H]4COC5(CCN(C(=O)CN6CCC(c7ccc(NC8CCC(=O)NC8=O)cc7F)CC6)CC5)C4)c(=O)c3c2Cl)c1C#N` (single isomer, unassigned) [Example 78]: 49.7 nM and 9.7%.
With `CCN(C)S(=O)(=O)Nc1ccc(F)c(Oc2ccc3ncn([C@H]4COC5(CCN(C(=O)CN6CCN(c7ccc(NC8CCC(=O)NC8=O)cc7F)CC6)CC5)C4)c(=O)c3c2)c1C#N` (stereo partly drawn) [Example 50, (3R)-3-[6-[2-cyano-3-[[ethyl(methyl)sulfamoyl]amino]-6-fluorophenoxy]-4-oxoquinazolin-3-yl]-8-[2-[4-[4-[(2,6-dioxopiperidin-3-yl)amino]-2-fluorophenyl]piperazin-1-yl]acetyl]-1-oxa-8-azaspiro[4.5]decane], the DC50 (A375.10 cells, 24 h) is 128 nM. Moreover, under setting [1], the Emax was 13.4%.
For `CCN(C)S(=O)(=O)Nc1ccc(F)c(Oc2ccc3ncc([C@@H]4COC5(CCN(C(=O)CC6(O)CCN(c7cc8c(cc7F)c(N7CCC(=O)NC7=O)nn8C)CC6)CC5)C4)c(OC)c3c2)c1C#N` (single isomer, unassigned) [Example 226] the same measures were 39.4 nM and 28.2%.
As for `CCN(C)S(=O)(=O)Nc1ccc(F)c(Oc2ccc3ncn(-c4cnc(N5CCN(C(=O)CN6CCC(c7ccc(N[C@@H]8CCC(=O)NC8=O)cc7F)CC6)CC5)nc4)c(=O)c3c2)c1C#N` [Example 95, 6-[2-cyano-3-[[ethyl(methyl)sulfamoyl]amino]-6-fluorophenoxy]-3-[2-[4-[2-[4-[4-[[(3R)-2,6-dioxopiperidin-3-yl]amino]-2-fluorophenyl]piperidin-1-yl]acetyl]piperazin-1-yl]pyrimidin-5-yl]-4-oxoquinazoline], the Emax turned out to be 10.4%. Also, for the setting “A375.10 cells, 24 h”, it took 10.7 nM to reach half-maximal degradation (DC50).
As to `CCN(C)S(=O)(=O)Nc1ccc(F)c(Oc2ccc3ncn([C@H]4CCC5(CCN(C(=O)CC6(O)CCN(c7ccc8c(N9CCC(=O)NC9=O)nn(C)c8c7F)CC6)CC5)C4)c(=O)c3c2)c1C#N` [Example 172, 6-[2-cyano-3-[[ethyl(methyl)sulfamoyl]amino]-6-fluorophenoxy]-3-[(3S)-8-[2-[1-[3-(2,4-dioxo-1,3-diazinan-1-yl)-7-fluoro-1-methylindazol-6-yl]-4-hydroxypiperidin-4-yl]acetyl]-8-azaspiro[4.5]decan-3-yl]-4-oxoquinazoline], where the note is “A375.10 cells, 24 h”, the DC50 was 28.9 nM. Under setting [1], the Emax turned out to be 25.1%.
